Measured values as given in patent US5674867A, “Indolocarbazole derivatives and therapeutic method for stimulating megakaicyocyte production” (Kyowa Hakko Kogyo Co., Ltd., priority 1992, dated 1997).
Several values for one entry are separate records, joined by “and”; a condition that tells them apart may be missing. Identical values can stand only once.

Experiments:
[1] = system: bone marrow cells (megakaryocyte colony formation); assay: Megakaryocyte colony formation-stimulating activity (ACHE-stained colonies, bone marrow cells with IL-3); type: cell-based, BALB/c mouse; conditions: 1 nM; with IL-3 100 U/ml; 7 days
Procedure: An eight-weeks-old BALB/c mouse was killed. Its femurs and cervical vertebrae were taken out, and both end sections thereof were cut off. Bone marrow cells were collected from the pieces cut off from the femurs and cervical vertebrae using a syringe containing IMDM (430-2200EA prepared by Gibco Co.), and then blown into a test tube. The test tube was allowed to stand for 5 minutes, and the supernatant was collected with a pipet. To a reaction mixture comprising the bone marrow cells (50,000 cells), bovine serum albumin (2%: A4508 made by Sigma Co.), transferrin (600 μg/ml 652202 made by Boehringer Mannheim Co.), IL-3 (100 U/ml), cholesterol (16 μg/ml: 036-0641 made by Wako Co.) and agar (0.6%: 0142-02 made by Difco Laboratories) were separately added the test compounds at various concentrations, and 1 ml each of the mixtures was put into a 35-mm dish (Lux Co.), followed by incubation under the conditions of 37° C., 5% CO2 and a humidity of 95% or more for 7 days. Separately, IL-3 alone was added to the bone marrow cells to prepare a control, whereas a positive control was prepared by adding 200 U/ml IL-6 to the above-mentioned reaction mixture. After the incubation was completed, the agar was dried over a filter paper (1001-055 made by Whatman Co.) and then fixed with 2.5% glutaraldehyde, followed by acetylcholinesterase staining (ACHE staining).
The ACHE staining was carried out by the method described below.
ACHE staining: To each sample was added a solution comprising 0.67 mg/ml acetylthiocholine iodide, 2.94 mg/ml sodium citrate, 7.5 mg/ml copper (II) sulfate and 1.65 mg/ml potassium ferricyanide, and the mixture was allowed to stand at room temperature in the dark for 4-6 hours.
A group of 4 or more megakaryocytes which were stained reddish brown was regarded as a colony, and the number of colonies per dish was calculated using a microscope. The results are shown in Table 2 as relative values to the control.

Acute toxicity test = conditions: mouse, in vivo, ip; male DDY mice, intraperitoneal, survival after 24 hours; read-out: LD50 (50% survival dose)
Procedure: To 6-weeks-old male DDY mice (3 per group) was intraperitoneally administered 0.2 ml of a solution of a test compound in a phosphate-buffered physiological saline. The 50% survival doses (LD50) were calculated from the survival rate after 24 hours. The LD50 for Compounds I-1, 17, 25, 26, 30-33, 35, 40 and 52 was >1 mg/kg, while that for all the other compounds was >30 mg/kg.

platelets = assay: Platelet production-stimulating activity in mice; type: in vivo, BALB/c mice; conditions: 7.5 mg/kg/day × 5, caudal vein; for Number of platelets, individual mouse: 7.5 mg/kg/day
Procedure: BALB/c mice (male, 7-weeks-old) were divided into 2 groups. To one group (control group) was administered a solvent (1% lactic acid, 4% aqueous solution of glucose) alone. On the other hand, the test group (Compound I-1-administered group) received 0.2 ml of a solution of Compound I-1 in the above solvent at a dose of 7.5 mg/kg via the caudal vein once a day for 5 days (Day 1-Day 5). On the day before the administration (Day 0) and the seventh day after the start of administration (Day 7), the ninth day (Day 9), the 14th day (Day 14) and the 21st day (Day 21), 20 μl of blood was collected from the fundus oculi vein of the mice of each group, and the number of the platelets was counted with a microcell counter (Type CC-180A made by Toa Iryo Denshi Co.).

CNC1CC2OC(C)(C1OC)n1c3ccccc3c3c4c(c5c6ccccc6n2c5c31)C(=O)NC4O (centres unmarked) [Compound I-1]
Relative value (megakaryocyte colonies, control = 100) [1]: 127
LD50 at 24 h (Acute toxicity test): > 1 mg/kg
Number of platelets, individual mouse (platelets; Day 0 (day before administration)): 92.6 × 10^4 /mm^3 and 90.5 × 10^4 /mm^3 and 94.2 × 10^4 /mm^3 and 117.6 × 10^4 /mm^3 and 111.7 × 10^4 /mm^3 and 95.5 × 10^4 /mm^3
Number of platelets (Average) (platelets; Day 0 (day before administration), control average 110.9): 100.4 × 10^4 /mm^3
% Relative value (number of platelets, Day 0 = 100) (platelets; Day 0, control 100): 100%
Number of platelets, individual mouse (platelets; Day 7): 103.1 × 10^4 /mm^3 and 91.8 × 10^4 /mm^3 and 119.4 × 10^4 /mm^3 and 155.7 × 10^4 /mm^3 and 136.3 × 10^4 /mm^3 and 111.2 × 10^4 /mm^3
% Relative value (number of platelets, Day 0 = 100) (platelets; Day 7, control 120.3): 119.1%
Number of platelets (Average) (platelets; Day 7, control average 133.4): 119.6 × 10^4 /mm^3
Number of platelets, individual mouse (platelets; Day 9): 125.3 × 10^4 /mm^3 and 160.0 × 10^4 /mm^3 and 144.5 × 10^4 /mm^3 and 136.1 × 10^4 /mm^3 and 146.8 × 10^4 /mm^3
% Relative value (number of platelets, Day 0 = 100) (platelets; Day 9, control 103.2): 144.9%
Number of platelets (Average) (platelets; Day 9, control average 114.5): 145.5 × 10^4 /mm^3
Number of platelets, individual mouse (platelets; Day 14): 125.3 × 10^4 /mm^3 and 106.4 × 10^4 /mm^3 and 121.1 × 10^4 /mm^3 and 145.4 × 10^4 /mm^3 and 112.3 × 10^4 /mm^3 and 115.0 × 10^4 /mm^3
% Relative value (number of platelets, Day 0 = 100) (platelets; Day 14, control 98.4): 120.4%
Number of platelets (Average) (platelets; Day 14, control average 109.1): 120.9 × 10^4 /mm^3
Number of platelets, individual mouse (platelets; Day 21): 133.9 × 10^4 /mm^3 and 202.7 × 10^4 /mm^3 and 153.0 × 10^4 /mm^3 and 139.6 × 10^4 /mm^3 and 135.5 × 10^4 /mm^3 and 163.9 × 10^4 /mm^3
% Relative value (number of platelets, Day 0 = 100) (platelets; Day 21, control 103.1): 154.2%
Number of platelets (Average) (platelets; Day 21, control average 114.3): 154.8 × 10^4 /mm^3
